The values that follow come from US10765655B2, “Composition containing monoacetyldiglyceride compound as active ingredient for preventing or treating chronic obstructive pulmonary disease” (ENZYCHEM LIFESCIENCES CORPORATION, priority 2013, dated 2020).

The test system of one series is IL-4 mRNA. The experiment in a line: Inhibition of PMA-induced IL-4 mRNA expression in EL-4 cells (PCR). Type of series: cell-based, mouse. Particulars: 20 μg/mL, PMA 1 ng/mL; for Inhibition (%) of IL-4 mRNA expression: vs PMA-treated group. The procedure: Based on the results of Example 1, each of the monoacetyldiacylglycerol compounds was added to EL-4 cells at a concentration of 20 μg/mL, and the effect thereof on the inhibition of PMA-induced expression of IL-4 mRNA in the EL-4 cells was measured. Specifically, the expression level of IL-4 mRNA induced by PMA (1 ng/mL) was measured using real-time polymerase chain reaction (real-time PCR) and quantitative real time polymerase chain reaction (qPCR). For cell preparation, EL-4 cells were seeded into a 6-well plate at a concentration of 1×10^6 cells/well and cultured for 12 hours, after which the cells were treated with each of the monoacetyldiacylglycerol compounds at a concentration of 20 μg/mL for 1 hour and treated with PMA at a concentration of 1 ng/m, followed by culture for 12 hours. Total RNA was extracted from the cells using Trizol B (Invitrogen, USA) and quantified, and then cDNA was synthesized from the total RNA using an Omniscript RT kit (Qiagen, GmbH, Hilden, Germany). The synthesized cDNA as a template was mixed with each of the IL-4 and GAPDH primers shown in Table 2 below and was subjected to PCR using a PCR mix (PCR Master Mix, Bioneer, Korea) under the following conditions: denaturation at 94° C. for 5 minutes; and then 30 cycles, each consisting of 30 sec at 95° C., 45 sec at 60° C., and 45 sec at 72° C.; followed by enzyme inactivation at 72° C. for 10 minutes. The results of measuring the percent inhibition of expression of IL-4 mRNA in EL-4 cells as described above are shown in Table 3 below. The designation of each of the samples shown in Table 3 below is as described with respect to Table above.

The test system of another series is EL-4 cells. The conditions noted are these: mouse, 24 h, 10 μg/ml.
In series [1] the test system is total inflammatory cells in bronchoalveolar lavage fluid. The series is described as follows: COPD mouse model (LPS+CS): total cell count in bronchoalveolar lavage fluid. The class given is in vivo, BALB/c mice. Particulars: BALF; for % inhibition of total cell: vs COPD group. On the procedure: (§1) To make COPD mouse models, 8-week-old male BALB/c mice were anesthetized with 7% chloral hydrate, and then intratracheally inhaled with 100 μl of a 1:1 mixture of 100 μg/ml of LPS and 4 mg/ml, of standard cigarette smoking (CS) extract (LPS+CS mixture) once a week for 3 weeks. […] EC-18 was dissolved in 0.5% CMC (carboxmethylcellulose sodium) to concentrations of 30 mg/kg and 60 mg/kg, and administered orally to the mice at 1 hour before intratracheal inhalation of 100 μl of the PS+CS mixture. The mice were divided into: (i) an untreated normal group (intact); (ii) a control group treated with LPS+CS (COPD-control); (iii) a test group administered orally with 30 mg/kg of EC-18 at 1 hour before treatment with LPS+CS; and (iv) a test group administered orally with 60 mg/kg of EC-18 at 1 hour before treatment with the LPS+CS mixture. After completion of the experiment, blood, bronchoalveolar lavage fluid and lung tissue were isolated from the mice of each of the groups.
(§2) After blood collection, the mice were dissected. To isolate cells from the bronchoalveolar lavage fluid (BALF), a syringe containing 1 ml of FBS-free DMEM medium was injected into the trachea and fixed with a string, and then cells were separated by performing circulation three times and were treated with ACK solution at 37° C. for 5 minutes to lyse red blood cells. Next, the cells were washed with FBS-free DMEM medium and then stained with 0.04% trypan blue, after which the number of total cells was measured.

Series [2] relates to neutrophils in bronchoalveolar lavage fluid. The series is described as follows: COPD mouse model (LPS+CS): neutrophil count in bronchoalveolar lavage fluid. Type of series: in vivo, BALB/c mice. Particulars: BALF; for % inhibition of neutrophil: vs COPD group. On the procedure:
as §1, §2

The subject of the next series is CD4+ cells. The experiment in a line: COPD mouse model: CD4+ cells in BAL by flow cytometry. Type of series: in vivo, BALB/c mice. Particulars: for CD4^+ cells (10^4): BAL cells; for % inhibition of CD4^+ cells: vs COPD group. On the procedure:
as §1
(§3) The separated BAL cells were adjusted to 5×10^5 cells, and then subjected to immunofluorescence staining at 4° C. PE-anti-CD4 (553047, BD Pharmingen) and PE-anti-Gr-1 (553128, BD Pharmingen) were added to the cells which were then incubated on ice for 30 minutes. After incubation, the cells were washed three times or more with phosphate buffered saline, and then the frequency of CD4^+ cells and Gr-1^+ neutrophils was analyzed using the Cell Quest program (643274, BD Biosciences) of a flow cytometer. Next, based on total cells, the absolute number of cells in each tissue was calculated.

In another series the test system is Gr-1+ neutrophils. The experiment in a line: COPD mouse model: Gr-1+ neutrophils in BAL by flow cytometry. Particulars: for Gr-1^+ neutrophils (10^4): BAL cells; for % inhibition of Gr-1^+ neutrophils: vs COPD group. The class given is in vivo, BALB/c mice. On the procedure: as §1, §3
Background: A flow cytometer gives signals particle by particle.

A further series concerns CXCL-1. The series is described as follows: COPD mouse model: CXCL-1 in bronchoalveolar lavage fluid by ELISA. The class given is in vivo, BALB/c mice. Particulars: for CXCL-1: BALF; for % inhibition of CXCL-1: vs COPD group. On the procedure:
as §1
(§4) The levels of CXCL-1, TNF-α and MIP-2 in the bronchoalveolar lavage isolated from the mice were measured by an enzyme-linked immunosorbent assay (ELISA). An antibody specific for each of CXCL-1, TNF-α and MIP-2 was diluted in coating buffer (291195, R&D System), coated on microwells, and then incubated overnight at 4° C. Each well was washed three times with washing buffer, and then 100 μl of serum (10-fold diluted) was added to each well. Each well was allowed to stand at room temperature for 1 hour, and then washed twice with washing buffer antibody, after which each well was treated with 100 μl of avidin-conjugated HRP (DY998, R&D System) and allowed to stand at room temperature for 1 hour, followed by washing. 100 μl of a TMB substrate was added to each well which was then allowed to stand in a dark room for 30 minutes and treated with 50 μl of a stop solution. Next, the absorbance at 450 nm was measured using an ELISA reader (Emax, Molecular Devices), and the percent inhibition of expression was calculated.
Background: In an ELISA, binding on a coated surface is turned into a signal by an enzyme label.

A further series has as its system TNF-α. The experiment in a line: COPD mouse model: TNF-α in bronchoalveolar lavage fluid by ELISA. The class given is in vivo, BALB/c mice. Particulars: for TNF-α: BALF; for % inhibition of TNF-α: vs COPD group. The procedure:
as §1, §4

The test system of a further series is MIP-2. The experiment in a line: COPD mouse model: MIP-2 in bronchoalveolar lavage fluid by ELISA. Type of series: in vivo, BALB/c mice. The conditions noted are these: for MIP-2: BALF; for % inhibition of MIP-2: vs COPD group. On the procedure: as §1, §4
Another series deals with sepsis animal model. Particulars: cecal-ligation-puncture; cited from earlier work.
The conditions of series [3]: GLP toxicity test; cited from earlier work.

Marks after values point to notes of the source that are not given here.

For the molecule `CCCCC/C=C\C/C=C\CCCCCCCC(=O)OCC(COC(C)=O)OC(=O)CCCCCCCCCCCCCCC` (stereo not shown) [LPAG, 1-linoeoyl-2-palmitoyl-3-acetylglycerol], the “Expression level of IL-4 mRNA (percentage relative to PMA-treated group)” value in the series with IL-4 mRNA came to 61.11 ± 27.49 percentage.
For the molecule `CCCCCCCC/C=C\CCCCCCCC(=O)OCC(COC(C)=O)OC(=O)CCCCCCCCCCCCCCCCC` (stereo not shown) [OSAG, 1-oleoyl-2-stearoyl-3-acetylglycerol], in the series on IL-4 mRNA, the “Expression level of IL-4 mRNA (percentage relative to PMA-treated group)” value amounted to 55.84 ± 25.77 percentage and the “Inhibition (%) of IL-4 mRNA expression” value worked out at 44.16%.
For `CCCCCCCCCCCCCCCC(=O)OCC(COC(C)=O)OC(=O)CCCCCCCCCCCCCCC` (stereo not shown) [PPAG, 1-palmitoyl-2-palmitoyl-3-acetylglycerol] the same measures were 48.62 ± 19.38 percentage and 51.38%.
Take `CCCCCCCC/C=C\CCCCCCCC(=O)OCC(COC(C)=O)OC(=O)CCCCCCCCCCCCCCC` (stereo not shown) [OPAG, 1-oleoyl-2-palmitoyl-3-acetylglycerol]: in the series on IL-4 mRNA, the “Expression level of IL-4 mRNA (percentage relative to PMA-treated group)” value worked out at 58.58 ± 21.74 percentage and the “Inhibition (%) of IL-4 mRNA expression” value was determined as 41.42%.
In the case of `CCCCCCCC/C=C\CCCCCCCC(=O)OC(COC(C)=O)COC(=O)CCCCCCCCCCCCCCC` (stereo not shown) [POAG, 1-palmitoyl-2-oleoyl-3-acetylglycerol], in the series with IL-4 mRNA, the “Expression level of IL-4 mRNA (percentage relative to PMA-treated group)” value is given as 75.47 ± 13.15 percentage and the “Inhibition (%) of IL-4 mRNA expression” value is recorded as 24.53%. Also, in the series on EL-4 cells, the “EL-4 cell viability (%, mean ± SD)” value is on record as 106.39 ± 1.19%.
Take `CCCCCCCCCCCCCCCCCC(=O)OC(COC(C)=O)COC(=O)CCCCCCCCCCCCCCC` (stereo not shown) [PSAG, 1-palmitoyl-2-stearoyl-3-acetylglycerol]: in the series with IL-4 mRNA, the “Expression level of IL-4 mRNA (percentage relative to PMA-treated group)” value is listed as 70.49 ± 17.78 percentage and the “Inhibition (%) of IL-4 mRNA expression” value is 29.51%.
In the case of `CCCCC/C=C\C/C=C\CCCCCCCC(=O)OCC(COC(C)=O)OC(=O)CCCCCCCCCCCCCCCCC` (stereo not shown) [LSAG, 1-linoeoyl-2-stearoyl-3-acetylglycerol], the “Expression level of IL-4 mRNA (percentage relative to PMA-treated group)” value with IL-4 mRNA stood at 41.62 ± 17.61 percentage.
For the molecule `CCCCC/C=C\C/C=C\CCCCCCCC(=O)OC(COC(C)=O)COC(=O)CCCCCCCCCCCCCCC` (stereo not shown) [EC-18, 1-palmitoyl-2-linoleoyl-3-acetylglycerol], in the series on IL-4 mRNA, the “Expression level of IL-4 mRNA (percentage relative to PMA-treated group)” value is reported as 78.17 ± 6.26 percentage and the “Inhibition (%) of IL-4 mRNA expression” value was found to be 21.83%. Moreover, in series [1] (30 mg/kg oral), the “Total cell (10^6)” value is listed as 81.0 ± 12.14^ 10^6 and the “% inhibition of total cell” value is given as 15.1%. Also, in series [1] (60 mg/kg oral), the “Total cell (10^6)” value is on record as 52.8 ± 10.41* 10^6 and the “% inhibition of total cell” value is 44.8%. Also, in [2] (30 mg/kg oral), the Neutrophil result was “no great change” and the “% inhibition of neutrophil” value turned out to be 3%. For the same molecule, the Neutrophil in series [2] (30 mg/kg oral, listed as EC18) turned out to be 196.9 ± 31.61. For the same molecule, in series [2] (60 mg/kg oral), the Neutrophil was found to be 116.8 ± 37.43 and the “% inhibition of neutrophil” value is recorded as 42%. In the series on CD4+ cells (30 mg/kg oral), the “CD4^+ cells (10^4)” value is on record as 308.2 ± 66.78 10^4 and the “% inhibition of CD4^+ cells” value was 39.6%. In the series on CD4+ cells (60 mg/kg oral), the “CD4^+ cells (10^4)” value was 152.8 ± 66.25 10^4 and the “% inhibition of CD4^+ cells” value was determined as 70.0%. In the series with Gr-1+ neutrophils (30 mg/kg oral), the “Gr-1^+ neutrophils (10^4)” value is 20.0 ± 6.97 10^4 and the “% inhibition of Gr-1^+ neutrophils” value is 40.9%. Besides, in the series with Gr-1+ neutrophils (60 mg/kg oral), the “Gr-1^+ neutrophils (10^4)” value is reported as 12.6 ± 4.93 10^4 and the “% inhibition of Gr-1^+ neutrophils” value was found to be 62.7%. For the same molecule, in the series with CXCL-1 (30 mg/kg oral), the “CXCL-1” value is listed as 264.3 ± 79.77 pg/mL and the “% inhibition of CXCL-1” value is listed as 15.4%. Moreover, in the series on CXCL-1 (60 mg/kg oral), the “CXCL-1” value is 142.9 ± 26.99 pg/mL and the “% inhibition of CXCL-1” value was 54.3%. Further, in the series with TNF-α (30 mg/kg oral), the “TNF-α” value was found to be 22.4 ± 13.98 pg/mL and the “% inhibition of TNF-α” value turned out to be 36.0%. In addition, in the series on TNF-α (60 mg/kg oral), the “TNF-α” value is 13.4 ± 5.33 pg/mL and the “% inhibition of TNF-α” value was found to be 61.8%. In the series with MIP-2 (30 mg/kg oral), the “MIP-2” value is listed as 28.9 ± 5.72 pg/mL and the “% inhibition of MIP-2” value came out at 40.6%. Moreover, in the series with MIP-2 (60 mg/kg oral), the “MIP-2” value was 17.6 ± 4.07 pg/mL and the “% inhibition of MIP-2” value is 63.8%. The “survivability ratio of animals” value with sepsis animal model was “increases survivability ratio of animals”. For the same molecule, the toxicity result in [3] was “no-toxicity”.
